Ki data for one compound are collected here from BindingDB's records for doi:10.1021/jm970414b (University of Michigan, 1997).

In this assay the target is Glutathionylspermidine synthetase/amidase (Escherichia coli) (UniProt P0AES0). Kind of assay: Inhibition of Glutathionylspermidine synthetase from Escherichia coli, value taken from literature.
Glutathionylspermidine synthetase/amidase (Escherichia coli), sequence (P0AES0 whole entry, looked up): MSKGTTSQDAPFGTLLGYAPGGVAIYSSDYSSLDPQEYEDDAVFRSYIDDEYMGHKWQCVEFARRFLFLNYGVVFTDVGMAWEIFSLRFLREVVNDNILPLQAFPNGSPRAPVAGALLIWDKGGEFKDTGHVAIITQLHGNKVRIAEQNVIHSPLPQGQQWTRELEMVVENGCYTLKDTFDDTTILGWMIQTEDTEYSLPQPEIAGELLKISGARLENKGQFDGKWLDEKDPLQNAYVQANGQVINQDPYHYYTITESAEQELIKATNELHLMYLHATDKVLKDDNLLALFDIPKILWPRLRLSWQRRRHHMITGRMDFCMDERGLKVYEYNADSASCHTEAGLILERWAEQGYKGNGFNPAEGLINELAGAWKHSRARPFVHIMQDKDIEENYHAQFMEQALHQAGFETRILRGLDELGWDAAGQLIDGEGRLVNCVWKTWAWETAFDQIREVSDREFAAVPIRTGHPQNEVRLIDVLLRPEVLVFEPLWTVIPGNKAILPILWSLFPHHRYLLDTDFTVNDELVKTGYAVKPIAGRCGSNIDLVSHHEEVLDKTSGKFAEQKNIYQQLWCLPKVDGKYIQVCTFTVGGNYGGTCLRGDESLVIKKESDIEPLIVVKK

`C[C@H](NC(=O)CC[C@H](N)C(=O)O)C(=O)NCP(=O)(O)OCCCNCCCCN` [2-Amino-4-[1-({[3-(4-amino-butylamino)-propoxy]-hydroxy-phosphorylmethyl}-carbamoyl)-ethylcarbamoyl]-butyric acid]: the Ki (as a rule, the equilibrium dissociation constant of an inhibitor or competing ligand from its target) was found to be 14 µM.
